Where a SMILES comes first, the peptide text is derived from it. Bridges are numbered along the chain shown (N, C = ends). [ ]: non-standard residue; d: D form. Ala(benzothiazol-2-yl) = N[C@@H](Cc1nc2ccccc2s1)C(=O)O; NH = not defined here
T1: EpoR in HCC1806 cells (Homo sapiens, UniProt P19235)
T1 construct: human breast cancer derived HCC1806 cells (ATCC, CRL-2335); host or cells: HCC1806
T1 sequence (P19235 25-508): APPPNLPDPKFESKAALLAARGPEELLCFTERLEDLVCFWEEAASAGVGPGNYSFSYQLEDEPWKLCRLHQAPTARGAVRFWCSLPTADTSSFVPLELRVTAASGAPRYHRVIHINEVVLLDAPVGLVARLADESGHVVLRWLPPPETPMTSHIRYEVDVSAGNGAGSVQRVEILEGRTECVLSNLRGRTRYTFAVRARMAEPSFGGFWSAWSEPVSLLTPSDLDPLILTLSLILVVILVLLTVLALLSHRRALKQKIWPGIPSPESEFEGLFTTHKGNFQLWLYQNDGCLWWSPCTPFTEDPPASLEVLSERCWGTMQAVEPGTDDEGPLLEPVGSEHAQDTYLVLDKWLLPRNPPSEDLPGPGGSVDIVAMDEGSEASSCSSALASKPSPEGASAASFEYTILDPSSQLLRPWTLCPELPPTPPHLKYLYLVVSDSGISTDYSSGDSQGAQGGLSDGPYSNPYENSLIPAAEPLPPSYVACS

T2: EpoR in AsPC-1 cells (Homo sapiens, UniProt P19235)
T2 construct: The test used human pancreatic cancer derived AsPC-1 cells (ECACC, 96020930); host or cells: AsPC-1
T2 sequence (P19235 25-508): T1 sequence (P19235 25-508)

T3: EpoR in bone marrow cells (Mus musculus, UniProt P14753)
T3 construct: tissue Japan SLC; host or cells: mouse (ICR, female) femur bone marrow cells
T3 sequence (P14753 25-507): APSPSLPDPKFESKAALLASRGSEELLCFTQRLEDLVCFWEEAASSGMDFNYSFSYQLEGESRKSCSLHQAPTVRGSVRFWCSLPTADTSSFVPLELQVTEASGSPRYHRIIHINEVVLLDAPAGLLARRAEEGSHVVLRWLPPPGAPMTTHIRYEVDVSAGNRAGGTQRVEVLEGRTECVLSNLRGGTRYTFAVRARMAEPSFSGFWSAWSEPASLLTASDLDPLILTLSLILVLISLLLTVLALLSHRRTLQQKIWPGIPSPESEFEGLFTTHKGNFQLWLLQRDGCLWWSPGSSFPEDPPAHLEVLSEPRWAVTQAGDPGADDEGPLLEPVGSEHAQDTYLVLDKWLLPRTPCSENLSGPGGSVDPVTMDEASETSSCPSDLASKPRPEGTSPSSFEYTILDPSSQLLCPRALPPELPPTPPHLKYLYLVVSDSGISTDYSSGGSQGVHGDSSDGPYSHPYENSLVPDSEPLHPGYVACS

T4: human βcR (CD131, CSF2RB) (human, UniProt P32927 17-897)
T4 construct: Endogenous on AsPC-1 and HCC1806 cells; also called βc receptor; IL3RB
T4 sequence: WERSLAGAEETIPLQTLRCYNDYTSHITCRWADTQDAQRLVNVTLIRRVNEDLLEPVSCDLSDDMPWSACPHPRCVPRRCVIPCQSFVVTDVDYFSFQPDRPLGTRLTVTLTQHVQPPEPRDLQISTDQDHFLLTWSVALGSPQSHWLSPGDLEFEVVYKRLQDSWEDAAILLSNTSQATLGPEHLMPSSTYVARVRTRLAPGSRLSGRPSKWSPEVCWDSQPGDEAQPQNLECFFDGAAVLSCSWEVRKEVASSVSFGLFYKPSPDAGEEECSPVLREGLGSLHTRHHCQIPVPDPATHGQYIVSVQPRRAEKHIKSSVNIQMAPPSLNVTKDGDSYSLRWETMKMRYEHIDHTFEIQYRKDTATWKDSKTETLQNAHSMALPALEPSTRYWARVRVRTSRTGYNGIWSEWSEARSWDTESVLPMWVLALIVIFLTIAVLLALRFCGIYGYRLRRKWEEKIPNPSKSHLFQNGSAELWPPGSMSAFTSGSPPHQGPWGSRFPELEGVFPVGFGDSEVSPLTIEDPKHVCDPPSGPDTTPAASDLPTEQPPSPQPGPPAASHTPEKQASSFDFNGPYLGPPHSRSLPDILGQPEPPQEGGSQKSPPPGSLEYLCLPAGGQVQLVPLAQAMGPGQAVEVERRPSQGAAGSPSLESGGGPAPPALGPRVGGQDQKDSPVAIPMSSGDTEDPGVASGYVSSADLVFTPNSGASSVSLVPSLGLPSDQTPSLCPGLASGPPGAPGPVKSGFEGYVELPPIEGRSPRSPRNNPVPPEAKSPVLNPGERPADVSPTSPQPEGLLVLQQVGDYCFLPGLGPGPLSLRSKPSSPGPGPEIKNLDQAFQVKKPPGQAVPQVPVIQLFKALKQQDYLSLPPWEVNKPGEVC

B1: Ac-SCHYGPLT (2-benzothiazolylalanine)VCK-NH-(biotin) (GT-11352) (peptide)
peptide: Ac-SCHYGPLT[Ala(benzothiazol-2-yl)]VCK-{NH-biotin}
modifications: disulfide 2-11; reading uncertain; also: printed as Ac-SCHYGPLT (2-benzothiazolylalanine)VCK-NH-(biotin)
notes: Synthetic, biotin-labeled peptide; also called anti-EpoR peptide
B2: human erythropoietin receptor (EpoR), wild-type (receptor)
chain: T1 sequence (P19235 25-508)
notes: Endogenous on human AsPC-1, HCC1806 and UT-7/Epo cells, or overexpressed from a vector in AsPC-1 and 293T cells; also called Epo receptor; wild-type EpoR

How the values were obtained:
[1] = Body weight of AsPC-1 cancer bearing mice; type: in vivo, mouse; conditions: ERA-350 0.2 mg/day intraperitoneally, twice a week for 4 weeks
Procedure: AsPC-1 cells cultured in the similar manner as Example 1 were collected, suspended in RPMI-1640 medium containing 10% Matrigel (BD Bioscience, 354234), and transplanted subcutaneously to the right side on the back of a 6-week-old male nude mouse (Japan SLC, BALB/cSlc-nu/nu) (5×10^6/0.1 mL/mouse). The length (L) and width (W) of the tumor were measured using a digital caliper. When the tumor volume (V) calculated from the formula V=L×W^2/2 reached about 150 to 200 mm^3, the mice were separated into groups and administered with test compounds (ERA-350 and ERA-350+gemcitabine). Saline was administered to a control group. The compounds were administered intraperitoneally (0.1 mL/mouse, 6 mice/test compound) once daily (0.2 mg/day for ERA-350, and 1 mg/day for gemcitabine), twice a week for 4 weeks. The tumor size and body weight were measured twice a week to monitor the effect of the administration of test compounds.

EpoR in HCC1806 cells = target: T1, EpoR in HCC1806 cells; experiment: Immunofluorescence co-localization of biotin-labeled anti-EpoR peptide with EpoR in HCC1806 cells; type: cell-based; conditions: 100 μM, 1 hour at 37° C.
Procedure: (§1) The test used human pancreatic cancer derived AsPC-1 cells (ECACC, 96020930) and human breast cancer derived HCC1806 cells (ATCC, CRL-2335) that were passaged (twice/week) under the condition of 37° C. and 5% CO2-95% air using RPMI-1640 medium (Sigma, R8758-500 ML) containing 10% fetal bovine serum (biowest, S182H-500) and 1 mM sodium pyruvate (gibco, 11360-070).
(§2) These bone marrow cells (2×10^6 cells) and cancer cells (AsPC-1 cells and HCC1806 cells; both 2×10^3 cells) were incubated with GT-11352 (biotin labeled, 100 μM) for 1 hour at 37° C. in the presence or absence of recombinant human erythropoietin (rhEpo) (10 U/mL). Subsequently, the cells were fixed with formalin, blocked, and subjected to immunofluorescent staining. The nucleus was stained by DAPI staining. The cells were observed through fluorescence with a microscope (Keyence, BZ-X800). The following antibodies were used. • EpoR detection: rat anti-EpoR antibody (Merck, clone BCO-3H2) and anti-rat IgG-Alexa® Fluor 594 (Abcam, ab150160) • GT-11352 detection: streptavidin-FITC (Tokyo Chemical Industry, S0966)

EpoR in AsPC-1 cells = target: T2, EpoR in AsPC-1 cells; experiment: Immunofluorescence co-localization of biotin-labeled anti-EpoR peptide with EpoR in AsPC-1 cells; type: cell-based; conditions: 100 μM, 1 hour at 37° C.
Procedure: as §1, §2

[2] = target: T3, EpoR in bone marrow cells; experiment: Immunofluorescence co-localization of biotin-labeled anti-EpoR peptide with EpoR in bone marrow cells; type: cell-based; conditions: 100 μM, 1 hour at 37° C.
Procedure: Bone marrow cells were harvested from mouse femur (Japan SLC, ICR, female).
as §2

[3] = target: B2; experiment: immunofluorescence colocalization on AsPC-1 and HCC1806 cells, GT-11352 100 µM, no rhEpo
[4] = target: T4, human βcR (CD131, CSF2RB); experiment: co-immunoprecipitation from membrane fractions of AsPC-1 cells (IP with anti-EpoR VP-2E8, blot with anti-EpoR BCO-3H2 or anti-βcR polyclonal antibody)
Procedure: The stable expression strain was cultured and collected. Membrane fractions were prepared using a commercially available membrane protein extraction kit (Mem-PER Plus Membrane Protein Extraction Kit, Thermo Scientific).

Molecule: CSCC[C@@H]1NC(=O)[C@@H]2CCCN2C(=O)CNC(=O)[C@H](Cc2ccc(O)cc2)NC(=O)[C@H](Cc2c[nH]cn2)NC(=O)[C@@H](NC(=O)[C@H](CO)NC(C)=O)CSSC[C@@H](C(=O)N[C@@H](CCCCN)C(N)=O)NC(=O)[C@H](C(C)C)NC(=O)[C@H](Cc2nc3ccccc3s2)NC(=O)[C@H]([C@@H](C)O)NC1=O [ERA-350] (Ac-SCHYGPMT[Ala(benzothiazol-2-yl)]VCK-NH2; disulfide 2-11)
- Body weight [1]: did not affect the body weight

Molecule: Ac-SCHYGPLT (2-benzothiazolylalanine)VCK-NH-(biotin) [GT-11352]
- Co-localization of EpoR and peptide (EpoR in HCC1806 cells; absence of erythropoietin): exhibited colocalization
- Co-localization of EpoR and peptide (EpoR in HCC1806 cells; presence of rhEpo 10 U/mL): exhibited colocalization
- Co-localization of EpoR and peptide (EpoR in AsPC-1 cells; absence of erythropoietin): exhibited colocalization
- Co-localization of EpoR and peptide (EpoR in AsPC-1 cells; presence of rhEpo 10 U/mL): exhibited colocalization
- Co-localization of EpoR and peptide ([2]; absence of erythropoietin): exhibited colocalization
- Co-localization of EpoR and peptide ([2]; presence of rhEpo 10 U/mL): did not exhibit co-localization

Molecule: B1
- binding result [3]: binds

Molecule: B2
- binding result [4]: binds

— patent US20230310539A1, “TREATMENT OF DISEASE WITH EPOR ANTAGONIST” (Epo-Med Inc., priority 2020, published 2023)
